The record followed here is patent US5610297A, “Peptides ketoamides” (Georgia Tech Research Corp., priority 1995, dated 1997).

Data set [1] has as its system Calpain-mediated breakdown of spectrin in platelets. Briefly: Platelet membrane permeability assay. In kind it is cell-based, rat. The arrangement: unit not given here. Particulars: numeric value, unit not given. As to the method:
Platelet membrane permeability assay. Calpain-mediated breakdown of spectrin was measured by quantitative densitometry of the calpain-specific 150/155 kDa spectrin fragment doublet [see Siman et al., Proc. Natl. Acad. Sci. USA 81, 3572-3576 (1984)]. Platelets were isolated by a modification of the method of Ferrell and Martin [J. Biol. Chem. 264, 20723-20729 (1989)]. Blood (15-20 ml) was drawn from male Sprague-Dawley rats into 1/10th volume of 100 mM EDTA-citrate, and centrifuged 10 minutes at 2000 rpm in a clinical centrifuge at room temperature. […] Platelets were washed once in 15 ml buffer 1, then resuspended to 10^7 cells/ml in buffer 2 (136 mM NaCl, 2.7 mM KCl, 0.42 mM NaH2 PO4, 12 mM NaHCO3, 2mM MgCl, 1 mg/ml BSA (Sigma), 5.6 mM glucose, 20 mM HEPES (Sigma) pH 7.4) and allowed to "rest" for a minimum of 10 minutes at room temperature before use.
Inhibitors were added from stock solutions made fresh in DMSO. 100 μl platelets, suspended to 10^7 cells/ml in buffer 2, were incubated with 1 μl of an inhibitor solution for 5 minutes at room temperature prior to the addition of 2 mM Ca^2+ and 1 uM A23 187. After 10 minutes total exposure to inhibitor (5 minutes exposure to ionophore) at room temperature, platelets were reisolated at 14,000 rpm for 10 sec in a Beckman microfuge, dissolved in SDS-PAGE sample buffer, and heated to 90° C. for 3 minutes.
Samples were subjected to SDS-PAGE in 4-12% gradient mini gels (Novex) and transferred to nitrocellulose (Schleicher and Schuell 0.45 um) by electroblotting. Filters were blocked for 10 minutes in 0.25% gelatin, 1% BSA, 0.25% triton X100, 0.9% NaCl, 10 mM Tris-Cl pH 7.5, incubated overnight in the same solution containing antibody to rat spectrin, washed 3×10 minutes with 10 mM Tris-Cl pH 7.5, 0.5% triton X100, incubated 4 hours in wash buffer plus alkaline phosphatase conjugated goat anti-rabbit antibody (Biorad), and washed as above. Blots were developed using the Biorad AP conjugate substrate kit. Quantitative densitometry was used to obtain values for the intact spectrin bands and the 150/155 kDa breakdown product doublet.

Data set [2] is described as follows: Half-life in plasma. It counts as in vitro ADME. The conditions noted are these: unit inferred, unit assumed.
The target in data set [3] is Calpain II from rabbit muscle. Briefly: Inhibition of calpain II (Suc-Leu-Tyr-AMC hydrolysis). In kind it is biochemical. How it is done: (§1) Materials and Methods. HEPES, heparin, and A23187 were obtained from Calbiochem. Suc-Leu-Tyr-AMC and chromogenic substrates were obtained from Sigma. Calpain I was purified from human erythrocytes according to the method of Kitahara (Kitahara et al., J. Biochem. 95, 1759-1766) omitting the Blue-Sepharose step. Calpain II from rabbit muscle and cathepsin B were purchased from Sigma. Papain was purchased from Calbiochem.
(§2) Assay of Inhibitory Potency. Peptide α-ketoamides were assayed as reversible enzyme inhibitors. Various concentrations of inhibitors in Me2 SO were added to the assay mixture which contained buffer and substrate. The reaction was started by the addition of the enzyme and the hydrolysis rates were followed spectrophotometrically or fluorimetrically.
(§3) Calpain I from human erythrocytes and calpain II from rabbit were assayed using Suc-Leu-Tyr-AMC [Sasaki et al., J. Biol. Chem. 259, 12489-12494 (1984); incorporated herein by reference], and the AMC (7-amino-4-methylcoumarin) release was followed fluorimetrically (excitation at 380 nm, and emmision at 460 nm). Calpains were assayed in 25 mM Tris pH=8.0, 10 mM CaCl2. Fluorescence was followed using a Gilson FL-1A fluorometer or a Perkin-Elmer 203 Fluorescence spectrometer. Cathepsin B was assayed in 20 mM sodium acetate pH=5.2, 0.5 mM dithiothreitol using Bz-Phe-Val-Arg-p-nitroanilide as substrate. Alternately, cathepsin B was assayed with Z-Arg-Arg-AFC [Barrett and Kirschke, Methods Enzymol. 80, 535-561 (1981); incorporated herein by reference], and the AFC (7-amino-4-trifluoromethylcoumarin) release was followed fluorimetrically (excitation at 400 nm and emmision at 505 nm). Papain was assayed in 100 mM KPO4, 1 mM EDTA, 2.5 mM cysteine pH=6.0 using Bz-Arg-AMC or Bz-Arg-NA [Kanaoka et al., Chem. Plmrm. Bull. 25, 3126-3128 (1977); incorporated herein by reference] as a substrate. The AMC (7-amino-4-methylcoumarin) release was followed fluorimetrically (excitation at 380 nm, and emmision at 460 nm). Enzymatic hydrolysis rates were measured at various substrate and inhibitor concentrations, and KI values were determined by either Lineweaver-Burk plots or Dixon plots.
(§4) A 0.1M Hepes, 0.5M NaCl, pH 7.5 buffer was utilized for human leukocyte elastase (HLE), porcine pancreatic elastase (PPE), chymotrypsin and cathepsin G. A 0.1 Hepes, 0.01M CaCl2, pH 7.5 buffer was utilized for trypsin, plasmin, and coagulation enzymes. A 50 mM Tris-HCl, 2 mM EDTA, 5 mM cysteine, pH 7.5 was used as a buffer for papain. A 88 mM KH2 PO4, 12 mM Na2 HPO4, 1.33 mM EDTA, 2.7 mM cysteine, pH 6.0 solution was used as a buffer for cathepsin B. A 20 mM Hepes, 10 mM CaCl2, 10 mM mercatoethanol, pH 7.2 buffer was utilized for calpain I and calpain II.

Data set [4] in a line: Half-life in liver. In kind it is in vitro ADME. Particulars: unit inferred, unit assumed.
In data set [5] the target is chymotrypsin (Bos taurus, UniProt P00766, DEL14-15/DEL147-148). Kind of data set: Inhibition of chymotrypsin (Suc-Val-Pro-Phe-NA hydrolysis). It counts as biochemical, bovine. How it is done:
as §2, §4
(§5) HLE and PPE were assayed with MeO-Suc-Ala-Ala-Pro-Val-NA and Suc-Ala-Ala-Ala-NA, respectively [Nakajima et al., J. Biol. Chem. 254, 4027-4032 (1979); incorporated herein by reference]. Human leukocyte cathepsin G and chymotrypsin Aα were assayed with Suc-Val-Pro-Phe-NA [Tanaka et al., Biochemistry 24, 2040-2047 (1985); incorporated herein by reference]. The hydrolysis of peptide 4-nitroanilides was measured at 410 nm [ε410 =8800 M^-1 cm^-1; Erlanger et al., Arch. Biochem. Biophys. 95, pp 271-278 (1961); incorporated herein by reference]. Trypsin, thrombin, human plasma kallikrein, porcine pancreatic kallikrein, human factor XIa, and human plasmin were assayed with Z-Arg-SBzl or Z-Gly-Arg-SBu-i [McRae et al., Biochemistry 20, 7196-7206 (1981); incorporated herein by reference]. All peptide thioester hydrolysis rates were measured with assay mixtures containing 4,4'-dithiodipyridine [ε324 =19800 M^-1 cm^-1; Grasetti & Murray, Arch. Biochem. Biophys. 119, 41-49 (1967); incorporated herein by reference].

Data set [6] has as its target cathepsin B. Kind of data set: Inhibition of cathepsin B. In kind it is biochemical. Particulars: read-out: KI Cath B. How it is done:
as §1, §2, §3, §4

Data set [7] concerns the target porcine pancreatic elastase (PPE) (Sus scrofa, UniProt P00772). Kind of data set: Inhibition of PP elastase (Suc-Ala-Ala-Ala-NA hydrolysis). In kind it is biochemical. How it is done: as §2, §4, §5

Sequence of porcine pancreatic elastase (PPE) (P00772 27-266): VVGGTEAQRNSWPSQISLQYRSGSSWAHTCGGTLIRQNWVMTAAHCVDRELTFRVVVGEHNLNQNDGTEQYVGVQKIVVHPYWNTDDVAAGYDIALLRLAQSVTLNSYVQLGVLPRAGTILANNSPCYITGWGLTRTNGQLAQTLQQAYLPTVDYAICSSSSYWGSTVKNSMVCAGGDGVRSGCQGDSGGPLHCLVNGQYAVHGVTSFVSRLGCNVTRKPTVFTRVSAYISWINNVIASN

Turning to `CCCC(NC(=O)C(CC(C)C)NC(=O)OCc1ccccc1)C(=O)C(=O)OCC` (stereo not shown) [Z--Leu--Nva--COOEt], in data set [1], the “platelet (Activity in the Platelet Assay)” value (from here on “platelet”) worked out at 40. This compound gave a t 1/2 plasma in data set [2] of 2.8 min.

Regarding `CCOC(=O)C(=O)C(Cc1ccccc1)NC(=O)C(CC(C)C)NC(=O)OCc1ccccc1` (stereo not drawn) [Z--Leu--Phe--COOEt, Z-Leu-Phe-COOEt], the “platelet” value in data set [1] came to 42. The t 1/2 plasma in data set [2] was 7.8 min.

What is called Ki is a dissociation constant, usually derived from enzyme kinetics or from competition with a known ligand. In the case of `CC(C)C[C@H](NC(=O)OCc1ccccc1)C(=O)N[C@@H](Cc1ccccc1)C(=O)C(=O)NCc1ccccc1` [Z--Leu--Phe--CONH--Bzl, Z-Leu-Phe-CONH-Bzl], the affinity in data set [3], expressed as Ki, was 46 nM.

Turning to `CCCCOC(=O)C(=O)[C@H](CC)NC(=O)[C@H](CC(C)C)NC(=O)OCc1ccccc1` [Z--Leu--Abu--COOn--Bu], the “platelet” value in data set [1] came to 28.

Consider `CC(C)C[C@H](NC(=O)OCc1ccccc1)C(=O)N[C@@H](Cc1ccccc1)C(=O)C(=O)NCCc1ccccc1` [Z--Leu--Phe--CONH(CH2)2 Ph, Z-Leu-Phe-CONH-(CH2)2 Ph], for which, in data set [1], the “platelet” value stood at 3.0. The same compound had a Ki in data set [3] of 24 nM. Further, in data set [2], the t 1/2 plasma is greater than 60 min.

`CCOC(=O)C(=O)[C@H](CC)NC(=O)[C@H](CC(C)C)NC(=O)[C@H](CC(C)C)NS(=O)(=O)c1ccc(C)cc1` [Tos--Leu--Leu--Abu--COOEt]: the “platelet” value in data set [1] came out at 30. This compound showed a t 1/2 plasma in data set [2] of 30 min.

Take `CCC(NC(=O)C(CC(C)C)NC(=O)OCc1ccccc1)C(=O)C(=O)O` (stereo not shown) [Z--Leu--Abu--COOH]: in data set [1], the “platelet” value is recorded as 8. This compound also returned a t 1/2 plasma in data set [2] greater than 60 min. Moreover, the t 1/2 liver in data set [4] was greater than 60 min.

As for `CC(C)CNC(=O)C(=O)[C@H](Cc1ccccc1)NC(=O)[C@H](CC(C)C)NC(=O)OCc1ccccc1` [Z--Leu--Phe--CONH--iBu, Z-Leu-Phe-CONH-iBu], in data set [1], the “platelet” value turned out to be 22. Also, the figures for the Ki in data set [5], in data set [3] and in data set [6] were 24000 nM, 65 nM and 4000 nM, respectively. The same compound gave a t 1/2 plasma in data set [2] greater than 60 min.

With `CCC(NC(=O)C(CC(C)C)NC(=O)OCc1ccccc1)C(=O)C(=O)NCc1ccccc1` (stereo not drawn) [Z--Leu--Abu--CONH--Bzl, Z-Leu-Abu-CONH-Bzl], in data set [1], the “platelet” value was determined as 1.5. For the same compound, the Ki in data set [5] was greater than 300000 nM; in data set [3] it was 350 nM; in data set [6] it was 2000 nM. Also, in data set [2], the t 1/2 plasma is greater than 60 min. Besides, the t 1/2 liver in data set [4] is greater than 60 min.

Regarding `CCC(NC(=O)C(CC(C)C)NC(=O)OCc1ccccc1)C(=O)C(=O)NCCO` (stereo not drawn) [Z--Leu--Abu--CONH--(CH2)2 OH, Z-Leu-Abu-CONH-(CH2)2 OH], affinity in data set [3] was put at a Ki of 78 nM.

In the case of `CCOC(=O)C(=O)C(CC)NC(=O)C(CC(C)C)NC(=O)C(CC(C)C)NC(=O)OCc1ccccc1` (stereo not shown) [Z--Leu--Leu--Abu--COOEt], in data set [1], the “platelet” value was 40.

Regarding `CC(C)CC(NC(=O)OCc1ccccc1)C(=O)NC(Cc1ccccc1)C(=O)C(=O)O` (stereo not shown) [Z--Leu--Phe--COOH], the “platelet” value in data set [1] came out at 6.5. The compound also displayed a t 1/2 plasma in data set [2] greater than 60 min. The compound further displayed a t 1/2 liver in data set [4] greater than 60 min.

Consider `CCOC(=O)C(=O)[C@H](CC)NC(=O)[C@H](CC(C)C)NC(=O)OCc1ccccc1` [Z--Leu--Abu--COOEt], for which the “platelet” value in data set [1] was determined as 42. The compound further gave a t 1/2 plasma in data set [2] of 2.8 min.

In the case of `CCC(NC(=O)C(CC(C)C)NC(=O)OCc1ccccc1)C(=O)C(=O)NCC(C)C` (stereo not drawn) [Z--Leu--Abu--CONH--iBu, Z-Leu-Abu-CONH-iBu], the Ki in data set [7] is 40000 nM; in data set [5], greater than 300000 nM; in data set [3], 140 nM; in data set [6] it was 4000 nM. The “platelet” value in data set [1] was found to be 28. The compound further came in with a t 1/2 plasma in data set [2] greater than 60 min.

In data set [3], `CC[C@H](NC(=O)[C@H](CC(C)C)NC(=O)OCc1ccccc1)C(=O)C(=O)NCCc1ccccc1` [Z--Leu--Abu--CONH--(CH2)2 --Ph, Z-Leu-Abu-CONH-(CH2)2 Ph] showed a Ki of 22 nM.

For `CCOC(=O)C(=O)C(CC)NC(=O)C(CC(C)C)NC(=O)C(CC(C)C)NS(=O)(=O)c1ccc2ccccc2c1` (stereo not shown) [2-NapSO2--Leu--Leu--Abu--COOEt], the “platelet” value in data set [1] is 100. Moreover, in data set [2], the t 1/2 plasma is greater than 60 min.

In the case of `CCCCC(NC(=O)C(CC(C)C)NC(=O)OCc1ccccc1)C(=O)C(=O)OCC` (stereo not shown) [Z--Leu--Nle--COOEt], the “platelet” value in data set [1] was found to be 20. In data set [2], the t 1/2 plasma stood at 3.7 min.

`CCCCCCCCNC(=O)C(=O)[C@H](CC)NC(=O)[C@H](CC(C)C)NC(=O)OCc1ccccc1` [Z--Leu--Abu--CONH--(CH2)7 CH3, Z-Leu-Abu-CONH--(CH2)7 CH3] yielded a Ki in data set [3] of 19 nM.

In data set [2], `CCOC(=O)C(=O)[C@H](CC)NC(=O)[C@H](CC(C)C)NC(=O)[C@H](CC(C)C)NC(=O)c1ccc2ccccc2c1` [2-NapCO--Leu--Leu--Abu--COOEt] showed a t 1/2 plasma of 25 min.

`CC[C@H](NC(=O)[C@H](CC(C)C)NC(=O)OCc1ccccc1)C(=O)C(=O)NCCCN1CCOCC1` [Z--Leu--Abu--CONH--(CH2)3 --Mpl, Z-Leu-Abu-CONH-(CH2)3 --N(CH2 CH2)2 O]: in data set [3], affinity was put at a Ki of 41 nM.
